This note sets out measurements from patent US7279473B2, “Pyrazolopyridazine derivatives” (SmithKline Beecham Corporation, priority 2001, dated 2007).

pIC50: −log10 of the molar value.

One test has as its target CDK2 (Homo sapiens, UniProt P24941). Nature of the test: CDK2 substrate phosphorylation assay (biotinylated peptide, [g-32P]ATP). Format: biochemical. The settings on record: read-out: CDK2 inhibition.
Test [1] addresses Cyclin D1 and cyclin-dependent kinase 4 (CDK4) (Homo sapiens, UniProt P11802). In words: CDK4 substrate phosphorylation assay (phosphorylation of GST-Rb protein, [33P]-ATP). The test is classed as biochemical. Particulars: read-out: CDK4 inhibition. As to the method:
The compounds of the present invention have valuable pharmacologic properties. Different compounds from this class are particularly effective at inhibiting CDK2 and/or CDK4 enzymes at concentrations, which range from 0.0001 to 1 μM and additionally show specificity relative to other kinases. Substrate phosphorylation assays were carried out as follows.
Cyclin D1 and cyclin-dependent kinase 4 were expressed utilizing a baculovirus expression system. The catalytic activity of CDK4 protein was assayed by measuring the phosphorylation of Rb protein. A truncated Rb protein (residues 773-928 of the native retinoblastoma protein, fused to glutathione S-transferase to facilitate purification) was used as the phosphoryl acceptor. The assay conditions were 100 mM HEPES (N-[2-hydroxyethyl]piperzine-N′-[2-ethanesulfonic acid]), pH 7.5, 0.5 μM GST-Rb protein, 1 μCi/mL [^33P]-ATP (1 nM-20 μM), 5-20 mM MgCl2, 2.5 mM EDTA, 1 mM dithiothreitol, 0.2 mg/mL bovine serum albumin, 2% (v/v) dimethyl sulfoxide (DMSO), CDK4 enzyme (5-50 nM) in a final volume of 50 μL Reactions were incubated for time periods of 10-60 min at 30° C. and terminated by the addition of 50 μL quench (1 mM ATP/100 mM EDTA, pH 7.0). Detection of protein phosphorylation was accomplished by scintillation counting following collection of protein in 96 well plates coated with Glutathione or trapping of protein onto phosphocellulose filters. Counts detected by these methodologies minus the appropriate background were assumed to be proportional to the reaction initial rates. […] IC50s were determined by a least squares fit to the equation CPM=Vmax*(1-([I]/(K+[I])))+nsb, or pIC50s were determined by a fit to the equation CPM=nsb+(Vmax−nsb)/(1+(x/10^x−pIC50)), where nsb are the background counts.

Test [2] deals with chemotherapy-induced alopecia. Nature of the test: Neonatal rat model of chemotherapy-induced alopecia. The test is classed as in vivo, Sprague Dawley rats. The settings on record: compounds in 100% DMSO applied topically to the scalp prior to chemotherapy; scored at day 21. From the text: Animal Model for Chemoprotection
Neonatal rat model of chemotherapy-induced alopecia: Time-pregnant female Sprague Dawley rats were purchased from Charles River Breeding Laboratories. Rat pups born on the same day were randomized at birth to 15 or 16 pups/mom/cage and were housed with moms during the study period. Each experimental group consisted of either 5 or 8 rats. For the etoposide model of CIA, rat pups received etoposide (VePesid, Bristol Laboratories Oncology Products, Princeton, N.J.) 6 mg/kg, ip, at 13 days of age (23). […] Compounds were formulated in 100% DMSO and applied topically to the scalp, 50 μL per application. Pups were treated with two topical applications of compounds 10 hours and 4 hours (t=−10, −4 hours) on both days 12 and 13 prior to chemotherapy administration. Pups were separated from mom during the topical application dosing period to prevent grooming and removal of compound. […] Inhibitor efficacy data was analyzed by comparing the % of drug-treated responders and the % of vehicle-treated responders. The amount of hair present on rat scalp at day 21 were scored and averaged for each inhibitor treated rat and ranked as +, ++ and +++.

Cyclin D1 and cyclin-dependent kinase 4 (CDK4), sequence (P11802 whole entry, species assumed): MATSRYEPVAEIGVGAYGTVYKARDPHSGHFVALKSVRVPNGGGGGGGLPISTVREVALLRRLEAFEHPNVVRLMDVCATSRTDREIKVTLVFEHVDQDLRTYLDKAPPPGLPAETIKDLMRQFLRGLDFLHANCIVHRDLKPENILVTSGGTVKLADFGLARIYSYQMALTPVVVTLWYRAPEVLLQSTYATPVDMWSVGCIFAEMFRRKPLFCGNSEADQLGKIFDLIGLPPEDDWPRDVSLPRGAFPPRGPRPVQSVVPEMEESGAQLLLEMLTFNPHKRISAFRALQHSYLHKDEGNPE
Cyclin D1 and cyclin-dependent kinase 4 (CDK4), sequence (P24385 whole entry partner, species assumed): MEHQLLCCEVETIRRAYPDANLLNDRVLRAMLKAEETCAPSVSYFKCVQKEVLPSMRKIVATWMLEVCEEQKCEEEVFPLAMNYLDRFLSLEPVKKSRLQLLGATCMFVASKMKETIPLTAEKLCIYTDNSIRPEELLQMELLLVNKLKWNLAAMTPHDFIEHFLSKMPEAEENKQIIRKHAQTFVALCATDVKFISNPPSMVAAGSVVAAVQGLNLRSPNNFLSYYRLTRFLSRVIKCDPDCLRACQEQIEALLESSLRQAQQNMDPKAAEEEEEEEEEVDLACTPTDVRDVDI
Method for CDK2: CDK2 was expressed utilizing a baculovirus expression system and was partially purified to comprise 20-80% of total protein, with no detectable competing reactions present. […] The buffer employed in enzyme assay was 100 mM HEPES pH 7.5 containing 0.1 mg/mL BSA and 5% DMSO. Inhibitors were diluted in 100% DMSO prior to addition into the assay. Detection of peptide phosphorylation was accomplished by scintillation counting following either collection of peptide onto phosphocellulose filters (for reactions stopped with acetic acid), collection of peptide in wells of 96 well plates coated with Streptavidin (Pierce) (reactions were stopped with EDTA), or addition of Avidin coated Scintillant impregnated beads (Scintillation Proximity Assays from Amersham, reactions were stopped with EDTA). […] Radioactivity was determined by liquid scintillation counting.

With `NS(=O)(=O)c1ccc(Nc2nccc(-c3cnn4ncccc34)n2)cc1` [Example 62, N-(4-aminosulfonylphenyl)-4-pyrazolo[1,5-b]pyridazin-3-yl-2-pyrimidinamine], the pIC50 on CDK2 was above 7.00.

On to `c1cnn2ncc(-c3ccnc(NC4CC4)n3)c2c1` [Example 1, N-Cyclopropyl-4-pyrazolo[1,5-b]pyridazin-3-yl-2-pyrimidinamine], for which, in test [1], the pIC50 is above 7.00.

`FC(F)(F)c1cccc(Nc2nccc(-c3cnn4ncccc34)n2)c1` [Example 9, 4-Pyrazolo[1,5-b]pyridazin-3-yl-N-[3-(trifluoromethyl)phenyl]-2-pyrimidinamine]: the pIC50 (in test [1]; at CDK2) was above 7.00 each time. Further, the “Rank (amount of hair present on rat scalp at day 21)” value (“Rank” for short) in test [2] was “++”.

Regarding `Clc1ccccc1-c1ccc2c(-c3ccnc(NC4CC4)n3)cnn2n1` [Example 42, 4-[6-(2-Chlorophenyl)pyrazolo[1,5-b]pyridazin-3-yl]-N-cyclopropyl-2-pyrimidinamine], the pIC50 (in test [1]; on CDK2) was above 6.00 each time.

With `O=[N+]([O-])c1cccc(Nc2nccc(-c3cnn4ncccc34)n2)c1` [Example 10, N-(3-Nitrophenyl)-4-pyrazolo[1,5-b]pyridazin-3-yl-2-pyrimidinamine], the pIC50 (in test [1]; at CDK2) was above 7.00 throughout.

On to `COc1cc(Nc2nccc(-c3cnn4ncccc34)n2)cc(C(F)(F)F)c1` [Example 57], for which the “Rank” value in test [2] is reported as “+”.

`c1cc(Nc2nccc(-c3cnn4ncccc34)n2)cc(-c2cnco2)c1` [Example 14, N-[3-(1,3-Oxazol-5-yl)phenyl]-4-pyrazolo[1,5-b]pyridazin-3-yl-2-pyrimidinamine]: the pIC50 (in test [1]; on CDK2) was above 7.00 in each case. For the same molecule, the “Rank” value in test [2] is “+”.

On to `CN(C)c1ccc(Nc2nccc(-c3cnn4nc(N5CCOCC5)ccc34)n2)cc1` [Example 53, N-^1-N^1-Dimethly-N^4-{4-[6-(4-morpholinyl)pyrazolo[1,5-b]pyridazin-3-yl]-2-pyrimidinyl}-1,4-benzenediamine], for which the pIC50 in test [1] is above 7.00; on CDK2, above 6.00.

As to `COc1ccc2c(-c3ccnc(NC4CC4)n3)cnn2n1` [Example 36, N-Cyclopropyl-4-(6-methoxypyrazolo[1,5-b]pyridazin-3-yl)-2-pyrimidinamine], the pIC50 (in test [1]; at CDK2) was above 6.00 in each case.

For `Cc1cc(Nc2nccc(-c3cnn4ncccc34)n2)ccc1N1CCN(C)CC1` [Example 25, N-[3-Methyl-4-(4-methyl-1-piperazinyl)phenyl]-4-pyrazolo[1,5-b]pyridazin-3-yl-2-pyrimidinamine], the pIC50 (in test [1]; at CDK2) was above 7.00 throughout.

Regarding `N#Cc1cccc(Nc2nccc(-c3cnn4ncccc34)n2)c1` [Example 7, 3-[(4-Pyrazolo[1,5-b]pyridazin-3-yl-2-pyrimidinyl)amino]benzonitrile], the pIC50 (in test [1]; at CDK2) was above 7.00 each time. For the same molecule, the “Rank” value in test [2] is “+++”.

As to `CN1CCN(c2ccc(Nc3nccc(-c4cnn5ncccc45)n3)cc2Cl)CC1` [Example 23, N-[3-Chloro-4-(4-methyl-1-piperazinyl)phenyl]-4-pyrazolo[1,5-b]pyridazin-3-yl-2-pyrimidinamine], the pIC50 (in test [1]; at CDK2) was above 7.00 in each case. Also, the “Rank” value in test [2] is “+++”.

Regarding `O=C1CCCN1CCCNc1nccc(-c2cnn3ncccc23)n1` [Example 22, 1-{3-[(Pyrazolo[1,5-b]pyridazin-3-yl-2-pyrimidinyl)amino]propyl}-2-pyrrolidinone], the pIC50 (in test [1]; on CDK2) was above 7.00 in each case.

On to `Clc1ccc(Nc2nccc(-c3cnn4ncccc34)n2)cc1` [Example 5, N-(4-Chlorophenyl)pyrazolo[1,5-b]pyridazin-3-yl-2-pyrimidinamine], for which the pIC50 (in test [1]; at CDK2) was above 7.00 throughout.
